Consider 1 compound from patent US20190307783A1, “USE OF ANTIVIRALS TO INHIBIT PROTOZOAN VIRUSES” (priority 2016, published 2019).

Broadly, the EC50 is the concentration giving half of the maximal effect.

In data set [1] the test system is LRV1 (LgyLRV1 capsid levels). Put plainly: organism not typed. Particulars: for LgyLRV1− population in washout, of total cell population / Parasites with LgyLRV1+ capsid levels in washout population: then drug-free media.
Data set [2] concerns L. braziliensis strains bearing LRV1. Nature of the data set: Growth inhibition of L. braziliensis strains bearing LRV1. The data set is classed as cell-based. Particulars: Leishmania braziliensis. Here is the method: For 2CMA, the EC50 was estimated to be ˜3 μM for LRV1 capsid inhibition, versus >100 μM for parasite growth (FIG. 11A), at least 30-fold selective. […] Several studies were carried out with L. braziliensis strains bearing LRV1 (12). The 2CMA EC50 for LbrLRV1 was similar to that seen with LgyLRV1 (˜3 μM); however, parasites were somewhat more susceptible to growth inhibition (EC50 50-100 μM). Because the available quantities of 7d2CMA were limiting and both compounds were similarly selective for L. guyanensis, we focused thereafter on 2CMA.
Most studies were performed using luciferase-expressing transfectants of L. guyanensis (MHOM/BR/78/M4147) described previously [LRV1^+ LgyM4147/SSU:IR2SAT-LUC(b)c3 and LRV^−LgyM4147/pX63HYG/SSU:IR2SAT-LUC(b)c4] (54); these lines are termed LgyLRV1^+ and LgyLRV1^−, respectively. Two strains of LRV1^+L. braziliensis were examined: LEM2780 (MHOM/BO/90/CS) and LEM3874 (MHOM/BO/99/IMT252 no. 3) (12). Parasites were grown in Schneider's media (Sigma Aldrich, St. Louis, Mo., USA) prepared according to the supplier's instructions with pH adjusted to 6.5 and supplemented with 0.76 mM hemin, 2 μg/mL biopterin, 50 U/mL penicillin, 50 μg/mL streptomycin, and 10% (vol/vol) heat-inactivated FBS. Cell concentrations were determined using a Coulter Counter ([…], Indianapolis, Ind., USA).

The conditions of data set [3]: animal models; cited from earlier work.

Read-outs that look alike come from different tables or passages of the source.

Regarding `C[C@@]1(O)[C@H](O)[C@@H](CO)O[C@H]1n1cnc2c(N)ncnc21` [2′C-methyadenosine, 2′-C-methyladenosine], the “LgyLRV1− population in washout, of total cell population” value was found to be 50% in data set [1] (100 μM for four doublings) and 31% in data set [1] (100 μM for three doublings). For the same compound, the figures for the “Parasites with LgyLRV1+ capsid levels in washout population” value in data set [1] (100 μM for four doublings) and in data set [1] (100 μM for three doublings) were 36% and 55%, respectively. Further, the “Fold less LRV1 capsid expression” value is listed as 16 fold in data set [1] (100 μM maintained for four cell doublings) and 8 fold in data set [1] (100 μM maintained for three cell doublings). The “Loss of LRV1 capsid and RNA at every cell doubling” value in data set [1] (100 μM, capsid flow cytometry and qRT-PCR) is reported as 50%. For the same compound, the EC50 in data set [1] (48 h, read-out: EC50 for 2CMA inhibition of LRV1 in the presence of allopurinol) is roughly 3000 nM; in data set [1] (read-out: EC50 for LRV1 capsid inhibition), roughly 3000 nM; in data set [2], 50 to 100 µM. Also, in data set [1] (48 h, read-out: Percent control (LRV1 capsid)), the activity at 100 µM was 7%. The “Selectivity for LRV1 versus L. guyanensis growth inhibition” value in data set [1] (EC50 growth vs EC50 LRV1 capsid) is “at least 30 fold”. In addition, the “LRV1 capsid (geometric mean FU)” value in data set [1] (LgyLRV1+, tested at 100 μM, 2 days) is given as 19 FU. Further, the “Reduction in LRV1 capsid levels” value in data set [1] (tested at 100 μM) is listed as 12 fold. The Serum half-life in data set [3] was 18 min.
